From ChEMBL document CHEMBL5137080, “Discovery of Novel 7-Hydroxy-5-oxo-4,5-dihydrothieno[3,2-b]pyridine-6-carboxamide Derivatives with Potent and Selective Antifungal Activity against Cryptococcus Species” (J Med Chem, 2022) come the findings set out here.

Data set [1] concerns Cryptococcus neoformans. As to the kind of experiment: Antifungal activity against Cryptococcus neoformans clinical isolate 56992 assessed as fungal growth inhibition incubated for 72 hrs in presence of P163-0892 by broth microdilution method. It counts as functional. (In general: Broth dilution looks for growth in wells or tubes with falling amounts of substance.)
The test system of data set [2] is Cryptococcus gattii species complex. Nature of the data set: Antifungal activity against Cryptococcus gattii clinical isolate SCZ20031 assessed as fungal growth inhibition incubated for 72 hrs in presence of P163-0892 by broth microdilution method. It counts as functional.
The test system of data set [3] is Cryptococcus neoformans. As to the kind of experiment: Synergistic antifungal activity against Cryptococcus neoformans clinical isolate 56992 assessed as fractional inhibitory concentration index incubated for 72 hrs in presence of P163-0892 by broth microdilution method. Type of data set: functional.
In data set [4] the test system is Pichia kudriavzevii. As to the kind of experiment: Antifungal activity against Candida krusei ATCC2340 assessed as fungal growth inhibition incubated for 48 hrs in presence of P163-0892 by broth microdilution method. It counts as functional.
Data set [5] deals with Cryptococcus neoformans. Nature of the data set: Antifungal activity against Cryptococcus neoformans clinical isolate HN19 assessed as fungal growth inhibition incubated for 72 hrs in presence of P163-0892 by broth microdilution method. It counts as functional.
In data set [6] the test system is Cryptococcus neoformans. As to the kind of experiment: Antifungal activity against Cryptococcus neoformans clinical isolate HN20 assessed as fungal growth inhibition incubated for 72 hrs in presence of P163-0892 by broth microdilution method. It counts as functional.
Data set [7] concerns Cryptococcus neoformans. As to the kind of experiment: Synergistic antifungal activity against Cryptococcus neoformans clinical isolate SH68 assessed as fractional inhibitory concentration index incubated for 72 hrs in presence of P163-0892 by broth microdilution method. Type of data set: functional.
For data set [8], the system named is Cryptococcus gattii species complex. As to the kind of experiment: Antifungal activity against Cryptococcus gattii clinical isolate SCZ20024 assessed as fungal growth inhibition incubated for 72 hrs in presence of P163-0892 by broth microdilution method. Type of data set: functional.
Data set [9] deals with Cryptococcus neoformans. As to the kind of experiment: Synergistic antifungal activity against Cryptococcus neoformans clinical isolate 445 assessed as fractional inhibitory concentration index incubated for 72 hrs in presence of P163-0892 by broth microdilution method. Type of data set: functional.
Data set [10] deals with [Candida] auris. Nature of the data set: Synergistic antifungal activity against Candida auris CBS 12372 assessed as fractional inhibitory concentration index incubated for 48 hrs in presence of P163-0892 by broth microdilution method. Type of data set: functional, Candidozyma auris.
The subject of data set [11] is Cryptococcus gattii species complex. As to the kind of experiment: Synergistic antifungal activity against Cryptococcus gattii clinical isolate SCZ20031 assessed as fractional inhibitory concentration index incubated for 72 hrs in presence of P163-0892 by broth microdilution method. It counts as functional.
The test system of data set [12] is Cryptococcus neoformans. As to the kind of experiment: Synergistic antifungal activity against Cryptococcus neoformans clinical isolate HN1 assessed as fractional inhibitory concentration index incubated for 72 hrs in presence of P163-0892 by broth microdilution method. It counts as functional.
Data set [13] concerns Cryptococcus neoformans. Nature of the data set: Antifungal activity against Cryptococcus neoformans H99 infected in Wax moth larvae assessed as reduction on fungal burden at 10 mg/kg measured after 9 days in presence of P163-0892 by 10 fold serial dilution method. It counts as functional. Conditions: time 9 day.
For data set [14], the system named is Cryptococcus neoformans. Nature of the data set: Synergistic antifungal activity against Cryptococcus neoformans clinical isolate HN17 assessed as fractional inhibitory concentration index incubated for 72 hrs in presence of P163-0892 by broth microdilution method. Type of data set: functional.
Data set [15] relates to Cryptococcus neoformans. As to the kind of experiment: Antifungal activity against Cryptococcus neoformans H99 infected in Wax moth larvae assessed as survival rate at 10 mg/kg measured after 9 days in presence of P163-0892 by Kaplan-Meier method. Conditions: H99, 216 h, time 9 day. It counts as functional.
The test system of data set [16] is Cryptococcus neoformans. Nature of the data set: Antifungal activity against Cryptococcus neoformans clinical isolate HN2-40 assessed as fungal growth inhibition incubated for 72 hrs in presence of P163-0892 by broth microdilution method. It counts as functional.
Data set [17] concerns Cryptococcus neoformans. As to the kind of experiment: Synergistic antifungal activity against Cryptococcus neoformans clinical isolate 443 assessed as fractional inhibitory concentration index incubated for 72 hrs in presence of P163-0892 by broth microdilution method. Type of data set: functional.
For data set [18], the system named is Cryptococcus neoformans. As to the kind of experiment: Antifungal activity against Cryptococcus neoformans clinical isolate 443 assessed as fungal growth inhibition incubated for 72 hrs in presence of Fluconazole by broth microdilution method. Type of data set: functional.
Data set [19] deals with [Candida] auris. As to the kind of experiment: Antifungal activity against Candida auris CBS 12372 assessed as fungal growth inhibition incubated for 48 hrs in presence of Fluconazole by broth microdilution method. It counts as functional. The note with it: Candidozyma auris.
Data set [20] can be described thus: Oral bioavailability in Sprague-Dawley rat at 5 mg/kg by LC-MS/MS analysis. It counts as ADME, organism-based. Conditions: in vivo.
Data set [21] can be described thus: Cytotoxicity against rabbit RBC assessed as cell growth inhibition incubated for 24 hrs by CCK-8 assay. Type of data set: toxicity, cell-based, Oryctolagus cuniculus, Erythrocyte. The note with it: red blood cells. For orientation: Tetrazolium assays rely on reduction of a dye to a coloured formazan, in cell work by metabolically active cells.
Data set [22] deals with Cryptococcus gattii species complex. Nature of the data set: Antifungal activity against Cryptococcus gattii E566 assessed as fungal growth inhibition incubated for 72 hrs in presence of Fluconazole by broth microdilution method. It counts as functional.
The subject of data set [23] is Cryptococcus deuterogattii. As to the kind of experiment: Synergistic antifungal activity against Cryptococcus gattii WM178 assessed as fractional inhibitory concentration index incubated for 72 hrs in presence of Fluconazole by broth microdilution method. Type of data set: functional, Cryptococcus gattii species complex.
Data set [24] can be described thus: Selectivity index, ratio of IC50 for human Caco-2 to MIC for antifungal activity against Cryptococcus neoformans. It counts as toxicity. The note with it: Caco-2 cells, read-out: Selectivity Index.
Data set [25] relates to Cryptococcus neoformans. As to the kind of experiment: Synergistic antifungal activity against Cryptococcus neoformans clinical isolate SH68 assessed as fractional inhibitory concentration index incubated for 72 hrs in presence of Fluconazole by broth microdilution method. Type of data set: functional.
For data set [26], the system named is Cryptococcus neoformans. As to the kind of experiment: Antifungal activity against Cryptococcus neoformans clinical isolate 444 assessed as fungal growth inhibition incubated for 72 hrs in presence of Fluconazole by broth microdilution method. It counts as functional.
The subject of data set [27] is Cryptococcus neoformans. As to the kind of experiment: Antifungal activity against Cryptococcus neoformans clinical isolate HN15 assessed as fungal growth inhibition incubated for 72 hrs in presence of Fluconazole by broth microdilution method. It counts as functional.
Data set [28] has as its system Cryptococcus gattii. As to the kind of experiment: Antifungal activity against Cryptococcus gattii WM179 assessed as fungal growth inhibition incubated for 72 hrs in presence of Fluconazole by broth microdilution method. It counts as functional, Cryptococcus gattii species complex.
The test system of data set [29] is Cryptococcus gattii species complex. Nature of the data set: Antifungal activity against Cryptococcus gattii clinical isolate SCZ20031 assessed as fungal growth inhibition incubated for 72 hrs in presence of Fluconazole by broth microdilution method. It counts as functional.
In data set [30] the test system is Candida albicans. Nature of the data set: Antifungal activity against Candida albicans SC5314 assessed as fungal growth inhibition incubated for 48 hrs in presence of Fluconazole by broth microdilution method. It counts as functional.
Data set [31] is described as follows: Cmax in Sprague-Dawley rat at 5 mg/kg,po by LC-MS/MS analysis. It counts as ADME, organism-based. The note with it: in vivo. Also noted: dose 5 mg/kg, route po.
Data set [32] has as its system Cryptococcus neoformans. Nature of the data set: Synergistic antifungal activity against Cryptococcus neoformans clinical isolate HN2 assessed as fractional inhibitory concentration index incubated for 72 hrs in presence of Fluconazole by broth microdilution method. Type of data set: functional.
A short description of data set [33]: Cytotoxicity against human Caco-2 cells assessed as cell growth inhibition incubated for 24 hrs by CCK-8 assay. Type of data set: toxicity, cell-based.
The subject of data set [34] is Cryptococcus neoformans. Nature of the data set: Antifungal activity against Cryptococcus neoformans clinical isolate SH68 assessed as fungal growth inhibition incubated for 72 hrs in presence of Fluconazole by broth microdilution method. It counts as functional.
Data set [35] has as its system [Candida] auris. Nature of the data set: Synergistic antifungal activity against Candida auris CBS 12372 assessed as fractional inhibitory concentration index incubated for 48 hrs in presence of Fluconazole by broth microdilution method. Type of data set: functional, Candidozyma auris.
In data set [36] the test system is Cryptococcus neoformans. Nature of the data set: Antifungal activity against Cryptococcus neoformans H99 assessed as reduction on fungal growth at 8 ug/ml incubated for 48 hrs by plate reader assay. It counts as functional, organism-based. Conditions: dose 8.0 µg/ml.
Data set [37] concerns Cryptococcus neoformans. As to the kind of experiment: Antifungal activity against Cryptococcus neoformans clinical isolate HN2 assessed as fungal growth inhibition incubated for 72 hrs in presence of Fluconazole by broth microdilution method. It counts as functional.
Data set [38] in a line: Volume of distribution at steady state in Sprague-Dawley rat at 2 mg/kg,iv by LC-MS/MS analysis. It counts as ADME, organism-based. Conditions: in vivo.
The subject of data set [39] is Candida parapsilosis. Nature of the data set: Antifungal activity against Candida parapsilosis ATCC22019 assessed as fungal growth inhibition incubated for 48 hrs in presence of Fluconazole by broth microdilution method. Type of data set: functional. Conditions: Lodderomyces parapsilosis.

The source made the active and inactive calls. The calls are words filed in the database; no cut-off is given here. A value given as a limit tells only on which side of the number the result lay.

Regarding `OC(Cn1cncn1)(Cn1cncn1)c1ccc(F)cc1F` [FLUCONAZOLE], the MIC amounted to 0.25 µg/mL in data set [1]; 1 µg/mL in data set [2]; 32 µg/mL in [4]; 1 µg/mL in data set [5]; 0.0625 µg/mL in data set [6]; 1 µg/mL in data set [8]. The MIC in [16] came out at 0.125 µg/mL. For the same compound, the “fractional inhibitory concentration index (FICI)” value is listed as 0.25 in data set [3]; 0.25 in [7]; 0.375 in data set [9]; 1.008 in [10]; 0.25 in [11]; 0.125 in [12]. Also, the “fractional inhibitory concentration index (FICI)” value in data set [14] and in [17] was 0.156 throughout. In addition, the Activity in data set [13] amounted to 4.8 log10CFU/g. Further, the survival at 10 mg/kg in data set [15] is 65%.

Turning to `CCCCNC(=O)c1c(O)c2sccc2n(Cc2ccccc2)c1=O`, the MIC is 0.0313 µg/mL in [18]; 1 µg/mL in [19]; 0.0313 µg/mL in [22]; 0.0156 µg/mL in [26]; 0.0625 µg/mL in [27]; 0.0625 µg/mL in data set [28]. The MIC in [29] was found to be 0.125 µg/mL; in data set [30], 1 µg/mL; in data set [34] it was 0.0625 µg/mL; in [37], 0.0313 µg/mL; in [39], 16 µg/mL. Besides, the bioavailability in data set [20] is 0.8%. For the same compound, the IC50 at 24 h in data set [21] and in data set [33] was more than 256 µg/mL throughout. The “fractional inhibitory concentration index (FICI)” value is recorded as 0.25 in [23], 0.25 in data set [25], 0.188 in data set [32] and 1.008 in data set [35]. Also, in data set [24], the selectivity ratio was more than 256. This compound also yielded a peak concentration (Cmax) in [31] of 2.97 ng/mL. Besides, the result in data set [36] was Active. Also, the Vdss in data set [38] was 7.12 L/kg.

As usually defined, the MIC is the lowest concentration that inhibits growth of the organism. As a reminder, the bioavailability is dose-corrected exposure relative to a reference, in per cent. The low end stands for little systemic uptake, the high end for much systemic uptake. The term IC50 denotes the concentration at which inhibition is half-maximal. What is called Cmax is the highest concentration seen after dosing. Usually Vdss stands for the apparent volume that relates the amount in the body to the concentration in plasma or blood. Read a high Vdss as wide distribution into tissue.
